Results published in PubChem BioAssay AID2743 (NMMLSC, 2010).
Activity calls are given as the source filed them.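 Rule for the calls: active = fitted half-maximal concentration for change in GFP expression of 33 µM or less; inactive = the rest.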

Test: concentration-dependent AGP1-GFP change, TOR pathway – cell-based, flow cytometry, S. cerevisiae, MLPCN hits, dose response (AID 2743)
Details: S. cerevisiae AGP1-GFP strain, flow cytometry GFP, 3 h; at 33 µM (top of the series)

Compound | GFP fluorescence (kMESF)
CC1=NNC(=O)/C1=C\c1cn(-c2ccccc2)nc1-c1ccccc1 | 40.4 kMESF (inactive)
O=c1[nH]c(-c2ccc(Cl)cc2)cs1 | 39.4 kMESF (inactive)
O=C1C2C3C=CC(CO)(O3)C2C(=O)N1c1ccccc1-c1ccccc1 (centres undefined) | 36.3 kMESF (inactive)
CCCCS(=O)(=O)/C=C\C=C/S(=O)(=O)CCCC | 26.3 kMESF (inactive)
CSC1=NS(=O)(=O)c2c(C)nn(C)c2S1 | 45.6 kMESF (inactive)
O=C(/C=C/c1ccccc1[N+](=O)[O-])c1ccccc1Br | 50.7 kMESF (inactive)
Cc1cc(C2CCCCC2)n(O)c(=O)c1 | 37.5 kMESF (inactive)
COc1cc(/C=C2\C(=O)ON=C2c2ccccc2)cc(Br)c1O | 28.7 kMESF (inactive)
Cc1ccc(C(=O)O/N=C(\N)Cc2cccs2)c(Cl)c1 | 22.9 kMESF (inactive)
CCN(CC)c1ccc(/C=C2\C(=O)c3ccc(C(=O)O)cc3C2=O)cc1 | 747 kMESF (inactive)
CCc1cccc2sc(N3CCN(C(=O)c4ccc([N+](=O)[O-])o4)CC3)nc12 | 12.4 kMESF (inactive)
COc1ccc(C(=O)NNC(=S)NC(=O)/C=C/c2cccs2)cc1 | 52.8 kMESF (inactive)
CC(=O)n1cc(C(C[N+](=O)[O-])SCCN)c2ccccc21 (centres undefined) | 28.8 kMESF (inactive)
O=[N+]([O-])c1ccc(-c2cn3nc(-c4ccccc4)c(-c4ccccc4)nc3n2)cc1 | 39.6 kMESF (inactive)
O=c1c2cc(Br)ccc2nc(-c2ccc([N+](=O)[O-])cc2)n1O | 29.6 kMESF (inactive)
CC1=C/C(=N\OS(=O)(=O)c2ccccc2)C(C(C)C)=CC1=O | 28.8 kMESF (inactive)
Cc1ccc(C(=O)NNC(=S)NC(=O)c2ccco2)cc1 | 44.1 kMESF (inactive)
Cc1cccc(NC(c2ccc(C)s2)c2ccc3ccc(C)nc3c2O)n1 (centres undefined) | 32.5 kMESF (inactive)
O=C1C(Cl)=C(NCCc2ccccc2)C(=O)N1CCc1ccccc1 | 43.3 kMESF (inactive)
O=C(c1ccccn1)c1conc1C(=O)c1ccc(Br)cc1 | 39.4 kMESF (inactive)
Cc1[nH][nH]c(=O)c1C(c1ccc(-c2ccc(Cl)cc2)o1)c1c(C)[nH][nH]c1=O | 39.2 kMESF (inactive)
O=C1Nc2ccc(Br)cc2/C1=C/C(=O)c1ccc2c(c1)OCO2 | 46.7 kMESF (inactive)

Compound | GFP fluorescence (kMESF)
O=C1NC(=O)C(=Cc2ccc(-c3ccc(Cl)cc3)o2)C(=O)N1 | 22.3 kMESF (inactive)
COc1ccc(/C=C/C(=O)NC(=S)NNC(=O)c2cnccn2)cc1 | 38.3 kMESF (inactive)
COc1cc(/C=C2\CC/C(=C\c3cc(OC)c(O)c(OC)c3)C2=O)cc(OC)c1O | 34.6 kMESF (inactive)
COc1ccccc1N=Cc1nc(-c2ccccc2)oc1OC(C)=O | 35.1 kMESF (inactive)
CCCCCn1c(=O)c(C(=O)Nc2nc3ccccc3[nH]2)c(O)c2ccccc21 | 36.9 kMESF (inactive)
c1ccc(-c2cccc(-c3ccccn3)n2)nc1 | 38.3 kMESF (inactive)
Cc1ccc(C(=O)Oc2oc(-c3ccccc3)nc2C=Nc2ccc(N(C)C)cc2)cc1 | 39.3 kMESF (inactive)
O=C(Sc1cccc2cccnc12)c1ccccc1Br | 37.3 kMESF (inactive)
O=[N+]([O-])c1cc(F)c2cccnc2c1O | 43.3 kMESF (inactive)
Cc1cccc(C(=O)NNC(=S)NC(=O)c2ccccc2)c1 | 44.8 kMESF (inactive)
O=C(O)c1ccn2c(C(=O)c3ccccc3)c(-c3ccccc3)cc2c1 | 37.7 kMESF (inactive)
COc1ccc(/C=C2/C(=O)ON=C2c2ccccc2)cc1OC | 27.1 kMESF (inactive)
O=C(O)c1ccc(COc2ccccc2C=C2C(=O)c3ccccc3C2=O)cc1 | 32.6 kMESF (inactive)
Nc1ccc2ccc3cccc[n+]3c2c1 | 42.9 kMESF (inactive)
O=C1NC(=O)N(CCc2ccc(F)cc2)C(=O)/C1=C/c1cccs1 | 39.1 kMESF (inactive)
O=C(COc1c(Br)cc(Br)c2cccnc12)N1CCc2ccccc2C1 | 28.6 kMESF (inactive)
CCCS(=O)(=O)c1nnnn1-c1cccc(OC)c1 | 35.1 kMESF (inactive)
Cc1ccc2nc(/C(C#N)=C/c3ccc(O)c(O)c3)[nH]c2c1 | 41.6 kMESF (inactive)
Cc1cc(S(=O)(=O)ON2C(=O)c3ccccc3C2=O)ccc1F | 43.2 kMESF (inactive)
COc1cccc(N=Nc2ccc(O)c3ncccc23)c1 | 45.7 kMESF (inactive)
COc1ccc(N2C(=O)C(Cl)=C(Oc3cccc(OC)c3)C2=O)cc1 | 38.8 kMESF (inactive)
O=C(O)c1cccc(S(=O)(=O)Nc2ccc(S(=O)(=O)N3CCOCC3)cc2)c1 | 36.9 kMESF (inactive)

Compound | GFP fluorescence (kMESF)
Cc1ccc2c(c1)c(/C=C/c1cc[n+](C)cc1)c(C)n2C | 48.2 kMESF (inactive)
Cc1ccc(C(=O)Sc2cccccc2=O)cc1 | 33 kMESF (inactive)
O=S(=O)(/N=C(\Sc1ccc(Cl)cc1)c1ccccc1)c1ccccc1 | 36.1 kMESF (inactive)
CC(C)[C@]1(c2ccc(Cl)cc2)ON(c2ccccc2C(F)(F)F)C1=O | 39.3 kMESF (inactive)
Cc1ccc(N=Nc2ccc(O)c3ncccc23)cc1 | 35.1 kMESF (inactive)
O=C1Oc2ccccc2C(=O)/C1=C/c1ccccc1O | 39.4 kMESF (inactive)
Cc1ccc(-c2nn(C(C)(C)C)c3ncnc(N)c23)cc1 | 40.2 kMESF (inactive)
CCCCC1OC23CCCCC2C(C#N)(C(=N)O3)C1(C#N)C#N (centres undefined) | 43.3 kMESF (inactive)
COC(=O)CCCC1=CC2=CC(=O)C(C)(OC(=O)CCc3ccccc3)C(=O)C2=CO1 (centres undefined) | 29.2 kMESF (inactive)
Cc1ccc(-c2nc(N)c3c(-c4ccc(C)cc4)nn(C(C)(C)C)c3n2)cc1 | 38.4 kMESF (inactive)
Cc1ccc(N2C(=O)C(Cl)=C(Nc3c(C)n(C)n(-c4ccccc4)c3=O)C2=O)cc1 | 35 kMESF (inactive)
C=C1C(O)[C@@H]2O[C@]3(CC[C@H](/C=C/C(C)[C@@H]4CC(C)=CC5(O[C@H](C[C@@](C)(O)C(=O)O)CCC5O)O4)O3)CC[C@H]2O[C@@H]1C(O)CC(C)[C@H]1OC2(CCCCO2)CCC1C (some centres undefined) | 35.8 kMESF (inactive)
O=C(Cc1ccc(Cl)cc1)NNC(=S)NC(=O)c1cccs1 | 36.9 kMESF (inactive)
CN1CCN(C(c2ccc(C(F)(F)F)cc2)c2ccc3cccnc3c2O)CC1 (centres undefined) | 34 kMESF (inactive)
COc1cccc(/C=N/Nc2ccc([N+](=O)[O-])cn2)c1O | 29.3 kMESF (inactive)
Cc1cc(C)c(OCC(=O)Nc2nc(-c3ccccn3)cs2)c(C)c1 | 28.8 kMESF (inactive)
O=C(Nc1cccc(-c2csc(Nc3ccccc3)n2)c1)c1ccccc1 | 31 kMESF (inactive)
CCOc1ccc(C(Nc2cccnc2)c2cc(Cl)c3cccnc3c2O)cc1 (centres undefined) | 36.3 kMESF (inactive)
COc1ccc(N2C(=O)CC(Sc3ncn[nH]3)C2=O)c(OC)c1 (centres undefined) | 36.2 kMESF (inactive)
COc1ccccc1N=Nc1ccc(O)c2ncccc12 | 49.5 kMESF (inactive)
